The values below are quoted from earlier work in patent publication US12115373B2, “Methods for reducing the risk of strokes by pharmacotherapy to reduce the number and duration of atrial fibrillations” (Xyra, LLC, priority 2022, dated 2024).

The conditions of this series: in 2016; reported by the Market Insider; cited from earlier work.

In the case of `O=C(NC[C@H]1CN(c2ccc(N3CCOCC3=O)cc2)C(=O)O1)c1ccc(Cl)s1` [Xarelto, rivaroxaban], the adverse events result is given as “over 15,000”.
